Data taken from US8691818B2, “Cyclic triazo and diazo sodium channel blockers” (University Of Greenwich, priority 2008, dated 2014).
Where two headings read alike, the source gives them in different places.

Columns and labels:
[1] = molecular target: hERG (Homo sapiens, UniProt Q12809); experiment: hERG: inhibition of binding of [3H]astemizole to HEK-293 cells expressing human recombinant hERG; conditions: for inhibition at 10 µM: human, probe [3H]astemizole; for hERG % inhibition @ 10 μM: [3H]astemizole binding
[2] = molecular target: T1, DiHydroFolate Reductase (DHFR) (Rattus norvegicus, UniProt Q920D2); experiment: Inhibition of binding of [3H]methotrexate to rat liver homogenate supernatant; conditions: for inhibition at 125 µM: read-out: [3H]mtx binding (% inhibition @ 125 μM); for inhibition at 99 µM: read-out: [3H]mtx binding % inhibition (* 99 μM, *** uses fresh batch of supernatant), 99 μM, fresh batch of supernatant
T1 construct: from tissue; host or cells: rat liver homogenate supernatant
T1 sequence (Q920D2 1-187): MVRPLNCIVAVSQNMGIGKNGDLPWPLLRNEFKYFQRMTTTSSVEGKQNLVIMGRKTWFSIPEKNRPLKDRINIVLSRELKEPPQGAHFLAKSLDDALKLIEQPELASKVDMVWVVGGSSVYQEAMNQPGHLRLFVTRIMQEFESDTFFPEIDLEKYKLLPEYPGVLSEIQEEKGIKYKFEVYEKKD
Procedure, shortened: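 Displacement of [3H]methotrexate binding to rat liver homogenate supernatant, prepared at 4 °C in pH 6.0 phosphate buffer with 15 mM dithiothreitol. Values are mean±sem over the number of experiments shown.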

[3] = system: sodium channel; experiment: [14C]guanidine flux: veratrine-evoked uptake of [14C]guanidine into rat forebrain synaptosomes (primary sodium channel assay); assay type: biochemical; conditions: 30° for 2½ min
Procedure, shortened: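 Synaptosomal fraction from male Wistar rat forebrain (without cerebellum/medulla), 20-25 mg wet weight/ml. Veratrine-evoked [14C]guanidine uptake at 30° for 2½ min across a compound concentration range; IC50 from concentration-effect curves, mean±sem.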

[4] = read-out: hERG IC50 (μM) (extrapolated from 10 μM inh'n), extrapolated assuming binding slope 1.0

hERG, sequence (Q12809 whole entry): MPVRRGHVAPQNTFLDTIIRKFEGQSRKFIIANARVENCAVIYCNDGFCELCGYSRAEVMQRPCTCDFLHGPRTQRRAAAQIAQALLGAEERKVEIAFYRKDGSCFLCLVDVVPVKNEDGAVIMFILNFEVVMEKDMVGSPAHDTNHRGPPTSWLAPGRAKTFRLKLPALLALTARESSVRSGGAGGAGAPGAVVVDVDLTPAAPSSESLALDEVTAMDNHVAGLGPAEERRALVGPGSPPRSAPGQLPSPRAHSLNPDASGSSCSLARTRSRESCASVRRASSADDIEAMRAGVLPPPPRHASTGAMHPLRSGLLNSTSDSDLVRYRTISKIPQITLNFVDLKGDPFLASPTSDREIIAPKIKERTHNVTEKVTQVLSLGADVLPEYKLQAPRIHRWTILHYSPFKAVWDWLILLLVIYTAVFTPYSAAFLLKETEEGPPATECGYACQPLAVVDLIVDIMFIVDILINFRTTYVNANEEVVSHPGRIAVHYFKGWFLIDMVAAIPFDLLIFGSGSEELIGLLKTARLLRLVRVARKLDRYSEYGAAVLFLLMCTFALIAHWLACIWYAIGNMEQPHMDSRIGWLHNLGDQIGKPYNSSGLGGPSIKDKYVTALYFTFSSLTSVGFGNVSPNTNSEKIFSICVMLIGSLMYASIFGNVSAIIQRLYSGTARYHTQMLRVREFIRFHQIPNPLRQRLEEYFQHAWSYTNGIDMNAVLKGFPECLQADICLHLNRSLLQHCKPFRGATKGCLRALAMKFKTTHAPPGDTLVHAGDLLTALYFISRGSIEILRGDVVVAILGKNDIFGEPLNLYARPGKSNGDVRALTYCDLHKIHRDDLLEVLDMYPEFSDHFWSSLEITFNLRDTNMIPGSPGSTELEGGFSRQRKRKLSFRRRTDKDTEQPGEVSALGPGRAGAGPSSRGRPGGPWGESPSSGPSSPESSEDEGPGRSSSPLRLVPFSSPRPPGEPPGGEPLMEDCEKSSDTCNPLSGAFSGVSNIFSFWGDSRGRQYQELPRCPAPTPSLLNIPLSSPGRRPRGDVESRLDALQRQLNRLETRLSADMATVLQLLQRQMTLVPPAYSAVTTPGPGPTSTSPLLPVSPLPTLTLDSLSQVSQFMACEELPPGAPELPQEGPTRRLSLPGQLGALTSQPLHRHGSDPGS

| Compound | IC50 [3] [µM] | melting point [°C] | inhibition at 125 µM ([2]; 125 μM) [%] | also measured |
| --- | --- | --- | --- | --- |
| Nc1nnc2c3ccccc3c3ccccc3c2n1 [CEN-128] | 251 | – | – | IC50 [1]: 53 µM; inhibition at 10 µM [1]: 16%; inhibition at 125 µM [2]: 0% |
| Cn1nc(-c2ccc3c(c2)OC(F)(F)O3)c(N)nc1=N [CEN-81, 5(3)-Amino-6-[5-(2,2-difluorobenzodioxolo)]-dihydro-3(5)-imino-2-methyl-1,2,4-triazine] | 251 | 297 to 298 | -2 | IC50 [1]: 49 µM; inhibition at 10 µM [1]: 17% |
| Cn1nc(-c2cccc(-c3ccccc3)c2)c(N)nc1=N [CEN-161, 5(3)-Amino-6-(3-biphenyl)-2,3(2,5)-dihydro-3(5)-imino-2-methyl-1,2,4-triazine methanesulfonate] | 16 | – | -7 | IC50 [1]: 1 µM; inhibition at 10 µM [1]: 88% |
| CCn1nc(-c2cc(C(C)(C)C)cc(C(C)(C)C)c2)c(N)nc1=N [CEN-189, 5(3)-Amino-6-(3,5 bis-tert-butylphenyl)-2,3(2,5)-dihydro-3(5)-imino-2-ethyl-1,2,4-triazine methanesulphonate] | 468 | – | 2 | IC50 [1]: 90 µM; inhibition at 10 µM [1]: 10% |
| Nc1ncc(-c2cccc(Cl)c2Cl)c(N)n1 [CEN-41, 2,4-Diamino-5-(2,3-dichlorophenyl)pyrimidine] | 60.3 | 289 to 291 | 76 | IC50 [1]: > 200 µM; inhibition at 10 µM [1]: -3% |
| 3,5-Diamino-6-[1-(2,5-dimethoxynaphthyl)-1,2,4-triazine [CEN-157] | 204 | – | – | hERG % inhibition @ 10 μM [1]: 6%; IC50 [1, 4]: 157 µM; [3H]mtx binding (% inhibition @ 125 μM) ([2]; 125 μM): −1% |
| CS(=O)(=O)O.Cn1nc(C23CC4CC(CC(C4)C2)C3)c(N)nc1=N [CEN-100, 6-Adamantyl-5(3)-amino-2,3(2,5)-dihydro-3(5)-imino-2-methyl-1,2,4-triazine methanesulfonate] | 77.6 | – | – | hERG % inhibition @ 10 μM [1]: 30%; IC50 [1, 4]: 23 µM; [3H]mtx binding (% inhibition @ 125 μM) ([2]; 125 μM): 10% |
| CCn1nc(-c2ccc3ccccc3c2)c(N)nc1=N [CEN-75, 5(3)-Amino-6-(2-naphthyl)-2,3(2,5)-dihydro-3(5)-imino-2-ethyl-1,2,4-triazine methanesulfonate] | 49 | – | 5 | IC50 [1]: 3 µM; inhibition at 10 µM [1]: 78% |
| Cn1nc(-c2cccc3c2CCCC3)c(N)nc1=N [CEN-120, 5(3)-Amino-6-[1-(5,6,7,8-tetrahydronaphthyl)]-2,3(2,5)-dihydro-3(5)-imino-2-methyl-1,2,4-triazine methanesulfonate] | 195 | – | 18 | IC50 [1]: 157 µM; inhibition at 10 µM [1]: 6% |
| Cn1nc(-c2ccc3ccccc3c2)c(N)nc1=N [CEN-76, 5(3)-Amino-6-(2-naphthyl)-2,3(2,5)-dihydro-3(5)-imino-2-methyl-1,2,4-triazine methanesulfonate] | 77.6 | – | 6 | IC50 [1]: 4 µM; inhibition at 10 µM [1]: 74% |
| CCn1nc(-c2cccs2)c(N)nc1=N [CEN-62, 5(3)-Amino-6-(2-thienyl)-2,3(2,5)-dihydro-3(5)-imino-2-ethyl-1,2,4-triazine methanesulfonate] | 141 | – | 46 | IC50 [1]: > 200 µM; inhibition at 10 µM [1]: -13% |
| COc1ccc2cc(C(C)c3nnc(N)nc3N)ccc2c1 (stereo not drawn) [CEN-165, 3,5-Diamino-6-[1-(6-methoxynaphthalene)ethy)-1,2,4-triazine] | 372 | – | – | hERG % inhibition @ 10 μM [1]: 23%; IC50 [1, 4]: 34 µM; [3H]mtx binding (% inhibition @ 125 μM) ([2]; 125 μM): −4% |
| Nc1nnc(-c2ccc(OCc3ccccc3)cc2)c(N)n1 [CEN-131, 3,5-Diamino-6-(4-Benzyloxyphenyl)-1,2,4-triazine] | 288 | 205 to 207 | 94 | – |
| Nc1nnc(-c2ccc(Cl)s2)c(N)n1 [CEN-138, 3,5-Diamino-6-[2-(5-chlorothienyl)]-1,2,4-triazine] | > 2000 | 312 to 314 | 67 | – |
| Nc1nnc(-c2ccc(-c3ccccc3)o2)c(N)n1 [CEN-107, 3,5-Diamino-6-[2-(5-phenylfuryl)]-1,2,4-triazine] | 1170 | 247 to 249 | 48 | – |
| CCCCc1ccc(-c2nnc(N)nc2N)cc1 [CEN-183, 3,5-Diamino-6-(4-n-butylphenyl)-1,2,4-triazine] | 39 | 184 to 186 | 106 | – |
| Nc1nnc(-c2ccc(Cl)nc2Cl)c(N)n1 [CEN-174, 3,5-Diamino-6-[3-(2,6-dichloropyidyl)]-1,2,4-triazine] | 589 | – | 4 | IC50 [1]: 101 µM; inhibition at 10 µM [1]: 9% |

| Compound | IC50 [3] [µM] | melting point [°C] | inhibition at 125 µM ([2]; 125 μM) [%] | also measured |
| --- | --- | --- | --- | --- |
| CS(=O)(=O)c1ccc(-c2nnc(N)nc2N)c(Cl)c1 [CEN-179, 3,5-Diamino-6-[2-chloro-4-(methylsulphonyl)phenyl]-1,2,4-triazine] | > 2000 | 286 to 288 | -1 | – |
| Nc1nnc(-c2cc(C(F)(F)F)cc(Cl)c2F)c(N)n1 [CEN-197, 3,5-Diamino-6-(3-chloro-2-fluoro-5-trifluoromethylphenyl)-1,2,4-triazine] | 91 | 218 to 220 | – | inhibition at 99 µM [2]: 95% |
| Nc1nnc(-c2cccc(OCc3ccc(Cl)cc3Cl)c2)c(N)n1 [CEN-144, 3,5-Diamino-6-[3-(2,4-dichlorobenzyloxyphenyl)]-1,2,4-triazine] | 57.5 | 164 to 166 | 96 | – |
| Nc1nnc(-c2ccc(-c3ccccc3)cc2)c(N)n1 [CEN-82, 3,5-Diamino-6-(4-biphenyl)-1,2,4-triazine] | > 1000 | 282 to 284 | -8 | – |
| Nc1nnc(-c2cccc(OCc3ccccc3)c2)c(N)n1 [CEN-123, 3,5-Diamino-6-(3-Benzyloxyphenyl)-1,2,4-triazine] | 41.7 | 284 to 286 | 86 | – |
| Nc1nnc(C2(c3ccc(Cl)cc3)CCCC2)c(N)n1 [CEN-148, 3,5-Diamino-6-[1-(4-chlorophenyl)-1-cyclopenty]-1,2,4-triazine] | 20.4 | 184 to 186 | 38 | – |
| Nc1nnc(-c2sccc2Br)c(N)n1 [CEN-125, 3,5-Diamino-6-[2-(3-bromothienyl)]-1,2,4-triazine] | 7590 | 215 to 217 | 6 | – |
| Nc1nnc(-c2cccc(OC(F)(F)C(F)F)c2)c(N)n1 [CEN-108, 3,5-Diamino-6-[3-(1,1,2,2-tetrafluoroethoxy)phenyl]-1,2,4-triazine] | 813 | 199 to 200 | 81 | – |
| Nc1nnc(-c2ccccc2OC(F)(F)C(F)F)c(N)n1 [CEN-137, 3,5-Diamino-6-[2-(1,1,2,2-tetrafluoroethoxy)phenyl]-1,2,4-triazine] | > 2000 | 158 to 160 | 23 | – |
| Nc1nnc(-c2cc3ccccc3s2)c(N)n1 [CEN-113, 3,5-Diamino-6-[2-(benzo[b]thiophenyl)]-1,2,4-triazine] | 2000 | 344 to 345 | 65 | – |
| CC(C)(C)c1cc(-c2nnc(N)nc2N)cc(C(C)(C)C)c1 [CEN-187, 3,5-Diamino-6-(3,5-di-tert-butylphenyl)-1,2,4-triazine] | 447 | 278 to 280 | 99 | – |
| COc1cc(OC)cc(-c2nnc(N)nc2N)c1 [CEN-192, 3,5-Diamino-6-(3,5-dimethoxyphenyl)-1,2,4-triazine] | > 2000 | 225 to 228 | – | inhibition at 99 µM [2]: 91% |
| Nc1nnc(-c2cccc3c2CCCC3)c(N)n1 [CEN-94] | 398 | 202 to 204 | -2 | – |
| COc1cc(-c2nnc(N)nc2N)cc(OC)c1OC [CEN-95, 3,5-Diamino-6-(3,4,5 trimethoxyphenyl)-1,2,4-triazine] | > 1000 | 309 to 311 | 6 | – |
| Nc1nnc(-c2ccccc2Cl)c(-c2ccccc2Cl)n1 [CEN-132, 3-Amino-5,6-bis(2-chlorophenyl)-1,2,4-triazine] | 69.2 | 240 to 242 | 4 | – |
| Cn1nc(-c2cccc(Oc3ccccc3)c2)c(N)nc1=N [CEN-106, 5(3)-Amino-6-(3-phenoxyphenyl)-2,3(2,5)-dihydro-3(5)-imino-2-methyl-1,2,4-triazine] | 26.9 | 160 to 161 | 43 | – |
| Nc1nnc(C2(c3ccc(Cl)cc3)CC2)c(N)n1 [CEN-154, 3,5-Diamino-6-[1-(4-chlorophenyl)-1-cyclopropyl]-1,2,4-triazine] | 162 | 157 to 159 | 13 | – |
